Columns and labels:
[1] = test system: NMDA receptor-mediated neurotoxicity in organotypic hippocampal slice cultures; experiment: NMDA receptor-mediated neurotoxicity in organotypic hippocampal slice cultures; format: cell-based, Wistar rat; conditions: 300 μM throughout the experiment, PI at 24 hours
Method: Organotypic hippocampal slice cultures were prepared and maintained as described above. NMDA was prepared as a 50 mM stock solution in distilled water, and diluted as required in SF medium. Neurotoxicity was induced by placing cultures in SF medium containing either 10 μM or […] NMDA for 180 minutes. After this time, cultures were replated in SF-medium and maintained for 24 hours in the incubator. Either 300 μM L-ArgSp or vehicle (SF medium) was added to the culture medium pre-, during and post-NMDA exposure. Throughout the duration of the experiment, 5 μg/ml PI was included in the medium. After 24 hours, neuronal damage was determined by PI fluorescence imaging and quantified as described previously.

[2] = test system: CA1 pyramidal cell layer of organotypic hippocampal slice cultures; experiment: Hypoxic neuronal damage in organotypic hippocampal slice cultures (propidium iodide fluorescence); format: cell-based, Wistar rat; conditions: 300 μM for 24 hours

## N=C(N)NCCCC(N)C(=O)NCCCNCCCCN [Compound A, N′-L-Arginylspermidine]
[1]; 10 μM NMDA for 180 minutes
  damage produced by NMDA (PI fluorescence, in words): did not reduce the damage
[1]; 30 μM NMDA for 180 minutes
  damage produced by NMDA (PI fluorescence, in words): did not reduce the damage
[2]
  PI fluorescence above baseline after incubation without hypoxia: no increase in PI fluorescence above baseline was observed

Reference: patent publication US6797699B1, “Neuroprotective agents” (University of Southampton, priority 1997, dated 2004)
